Experimental findings from patent publication US20120101083A1, “S1P1 AGONISTS COMPRISING A BICYCLIC N-CONTAINING RING” (GLAXO GROUP LIMITED, priority 2009, published 2012) are described below.

Broadly, the EC50 is the midpoint of the concentration-response curve.

The test deals with T1, S1P1 (PathHunter CHO-K1 EDG1 β-Arrestin cell line) (Homo sapiens, UniProt P21453).
T1 construct: host or cells: PathHunter CHO-K1 EDG1 β-Arrestin cell line
Nature of the test: S1P-1 β-Arrestin recruitment assay. Format: cell-based. As to conditions: CHO-K1 EDG1 β-Arrestin cells, chemi-luminescence. The method, then:
S1P-1 β-Arrestin Recruitment Assay
β-Arrestin recruitment assays were carried out using the PathHunter CHO-K1 EDG1
β-Arrestin cell line (DiscoveRx Corporation) in a chemi-luminescence detection assay. This cell line stably expresses β-Arrestin 2 and S1P1 fused to complementing portions of β-galactosidase (‘EA’ and ‘pro-link’, respectively) which associate upon Arrestin recruitment to form functional β-galactosidase enzyme.
Cells were grown to 80% confluency in Growth Medium (F12 nutrient HAMS supplemented with 10% heat-inactivated USA FBS, 1% L-glutamax, 800 μg/ml Geneticin and 300 μg/ml Hygromycin). Cells were harvested from the flask using Enzyme Free Cell Dissociation Buffer (Gibco) and washed from flasks with Optimem solution (Gibco). Cells were then centrifuged at 1000 rpm for 2-3 min and resuspended in Assay Buffer (Prepared from Sigma kit H1387 supplemented with 20 ml/L HEPES, 4.7 ml/L NaHCO3, 0.1% pluronic acid F-68 solution, 0.1% BSA and adjusted to pH 7.4 using sodium hydroxide at 1×10^6 cells/ml. Cells were dispensed into assay plates containing compounds (100n1/well of a solution of test compound in 100% DMSO) at 1×10^4 cells/well and incubated at 37° C./5% CO2 for 90 min followed by 15 min at room temperature. 5 μl detection mix (1 part Galacton Star, 5 parts Emerald II, 19 parts Assay Buffer; DiscoveRx) were added per well and the plates incubated at room temperature for 60 min. Luminescence was quantified using a Viewlux plate reader.
For orientation: Arrestin recruitment assays detect the binding of arrestin to an activated receptor.

Structures can show the parent of a compound that is named as a salt.

T1 sequence (P21453 whole entry): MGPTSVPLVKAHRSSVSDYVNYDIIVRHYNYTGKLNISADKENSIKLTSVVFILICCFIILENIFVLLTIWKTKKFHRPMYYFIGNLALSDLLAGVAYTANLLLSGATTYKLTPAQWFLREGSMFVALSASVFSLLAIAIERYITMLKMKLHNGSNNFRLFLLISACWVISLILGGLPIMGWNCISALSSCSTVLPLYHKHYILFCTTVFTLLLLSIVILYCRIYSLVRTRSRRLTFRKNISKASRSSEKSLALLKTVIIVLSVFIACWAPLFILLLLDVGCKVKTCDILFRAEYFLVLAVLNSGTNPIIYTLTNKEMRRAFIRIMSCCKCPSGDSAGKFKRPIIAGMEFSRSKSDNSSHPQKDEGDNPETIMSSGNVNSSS
T1 sequence (P32121 whole entry partner): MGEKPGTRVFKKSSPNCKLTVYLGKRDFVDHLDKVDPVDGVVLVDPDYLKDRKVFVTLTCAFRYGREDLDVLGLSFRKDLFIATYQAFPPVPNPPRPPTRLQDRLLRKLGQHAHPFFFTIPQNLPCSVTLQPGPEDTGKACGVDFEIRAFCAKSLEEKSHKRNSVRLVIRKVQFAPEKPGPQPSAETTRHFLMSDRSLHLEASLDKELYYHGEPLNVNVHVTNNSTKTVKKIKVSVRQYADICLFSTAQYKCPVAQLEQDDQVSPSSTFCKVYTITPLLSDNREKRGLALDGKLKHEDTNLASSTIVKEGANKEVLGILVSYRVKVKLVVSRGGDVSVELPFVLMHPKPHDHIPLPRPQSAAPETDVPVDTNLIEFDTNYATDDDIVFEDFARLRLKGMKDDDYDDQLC

`CC(C)Oc1ccc(-c2nc(-c3ccc4c(c3)CCN(C(C)C(=O)NCCO)CC4)no2)cc1C#N` (stereo not drawn) [Example 161, 2-[7-(5-{3-cyano-4-[(1-methylethyl)oxy]phenyl}-1,2,4-oxadiazol-3-yl)-1,2,4,5-tetrahydro-3H-3-benzazepin-3-yl]-N-(2-hydroxyethyl)propanamide hydrochloride] gave an EC50 of no more than 100 nM.
The result for `CC(C)Oc1ccc(-c2nc(-c3ccc4c(c3)CCN(C[C@@H](O)C(=O)NCCO)CC4)no2)cc1C#N` [Example 164, (2R)-3-[7-(5-{3-cyano-4-[(1-methylethyl)oxy]phenyl}-1,2,4-oxadiazol-3-yl)-1,2,4,5-tetrahydro-3H-3-benzazepin-3-yl]-2-hydroxy-N-(2-hydroxyethyl)propanamide hydrochloride] reads no more than 10 nM; that for `Cc1c(-c2noc(-c3ccc(OC(C)C)c(Cl)c3)n2)ccc2c1CCN(CC(=O)NC[C@H](O)CO)C2` [Example 192, 2-[6-(5-{3-chloro-4-[(1-methylethyl)oxy]phenyl}-1,2,4-oxadiazol-3-yl)-5-methyl-3,4-dihydro-2(1H)-isoquinolinyl]-N-[(2S)-2,3-dihydroxypropyl]acetamide hydrochloride], no more than 10 nM; that for `N#Cc1cc(-c2nc(-c3ccc4c(c3)CCN(C(=O)CN)CC4)no2)ccc1OCC(F)(F)F` [Example 191, 5-[3-(3-glycyl-2,3,4,5-tetrahydro-1H-3-benzazepin-7-yl)-1,2,4-oxadiazol-5-yl]-2-[(2,2,2-trifluoroethyl)oxy]benzonitrile hydrochloride], no more than 10 nM.
The result for `Cc1c(-c2noc(-c3ccc(OC(C)C)c(C#N)c3)n2)ccc2c1CCN(C(=O)CNCCO)C2` [Example 131, formic acid-5-(3-{2-[N-(2-hydroxyethyl)glycyl]-5-methyl-1,2,3,4-tetrahydro-6-isoquinolinyl}-1,2,4-oxadiazol-5-yl)-2-[(1-methylethyl)oxy]benzonitrile (1:1)] reads no more than 10 nM.
`Cc1c(-c2noc(-c3ccc(OC(C)C)c(C#N)c3)n2)ccc2c1CCN(C(=O)CN[C@H](C)CO)C2` [Example 128] showed an EC50 of no more than 10 nM.
With `Cc1c(-c2noc(-c3cnc(OC(C)C)c(C#N)c3)n2)ccc2c1CCN(CC(=O)N[C@@H](C)CO)C2` [Example 170, 2-[6-(5-{5-cyano-6-[(1-methylethyl)oxy]-3-pyridinyl}-1,2,4-oxadiazol-3-yl)-5-methyl-3,4-dihydro-2(1H)-isoquinolinyl]-N-[(1S)-2-hydroxy-1-methylethyl]acetamide hydrochloride] the figure was no more than 10 nM; with `Cc1c(-c2noc(-c3ccc(OC(C)C)c(Cl)c3)n2)ccc2c1CCN(CC(=O)NC(CO)CO)C2` [Example 193, 2-[6-(5-{3-chloro-4-[(1-methylethyl)oxy]phenyl}-1,2,4-oxadiazol-3-yl)-5-methyl-3,4-dihydro-2(1H)-isoquinolinyl]-N-[2-hydroxy-1-(hydroxymethyl)ethyl]acetamide hydrochloride], no more than 10 nM.
With `Cc1c(-c2noc(-c3ccc(OC(C)C)c(C#N)c3)n2)ccc2c1CCN(C(=O)CNC[C@H](O)CO)C2` [Example 126, 5-[3-(2-{N-[(2S)-2,3-dihydroxypropyl]glycyl}-5-methyl-1,2,3,4-tetrahydro-6-isoquinolinyl)-1,2,4-oxadiazol-5-yl]-2-[(1-methylethyl)oxy]benzonitrile hydrochloride] the figure was no more than 10 nM.
`Cc1c(-c2noc(-c3cnc(OC(C)C)c(Cl)c3)n2)ccc2c1CCN(C(CO)CO)C2` [Example 144, 2-[6-(5-{5-chloro-6-[(1-methylethyl)oxy]-3-pyridinyl}-1,2,4-oxadiazol-3-yl)-5-methyl-3,4-dihydro-2(1H)-isoquinolinyl]-1,3-propanediol] gave an EC50 of no more than 100 nM.
Compound `CC(C)Oc1ccc(-c2nc(-c3ccc4c(c3)CCN(CC(=O)NCCCO)CC4)no2)cc1C#N` [Example 157, 2-[7-(5-{3-cyano-4-[(1-methylethyl)oxy]phenyl}-1,2,4-oxadiazol-3-yl)-1,2,4,5-tetrahydro-3H-3-benzazepin-3-yl]-N-(3-hydroxypropyl)acetamide] showed an EC50 of no more than 10 nM.
With `CC(C)Oc1ccc(-c2nc(-c3ccc4c(c3)CCN(C(C)C(=O)N[C@H](C)CO)CC4)no2)cc1C#N` (stereo partly drawn) [Example 162, 2-[7-(5-{3-cyano-4-[(1-methylethyl)oxy]phenyl}-1,2,4-oxadiazol-3-yl)-1,2,4,5-tetrahydro-3H-3-benzazepin-3-yl]-N-(1R)-2-hydroxy-1-methylethyl]propanamide hydrochloride] the figure was no more than 100 nM.
`CC(C)Oc1ccc(-c2nc(-c3cccc4c3CCN(C(=O)CCN)C4)no2)cc1C#N` [Example 88, 5-[3-(2-β-alanyl-1,2,3,4-tetrahydro-5-isoquinolinyl)-1,2,4-oxadiazol-5-yl]-2-[(1-methylethyl)oxy]benzonitrile hydrochloride] showed an EC50 of no more than 100 nM.
The result for `Cc1c(-c2noc(-c3ccc(OC(C)C)c(C#N)c3)n2)ccc2c1CCN(C(=O)CNC(CO)CO)C2` [Example 127, 5-[3-(2-{N-[2-hydroxy-1-(hydroxymethyl)ethyl]glycyl}-5-methyl-1,2,3,4-tetrahydro-6-isoquinolinyl)-1,2,4-oxadiazol-5-yl]-2-[(1-methylethyl)oxy]benzonitrile hydrochloride] reads no more than 10 nM; that for `COCCN1CCc2c(cccc2-c2nnc(-c3ccc(OC(C)C)c(C#N)c3)s2)C1` [Example 37, 2-[(1-Methylethyl)oxy]-5-(5-{2-[2-(methyloxy)ethyl]-1,2,3,4-tetrahydro-5-isoquinolinyl}-1,3,4-thiadiazol-2-yl)benzonitrile], no more than 100 nM.
In turn, `CC(C)Oc1ccc(-c2nc(-c3ccc4c(c3)CCN(C[C@@H](O)C(=O)N[C@H](C)CO)CC4)no2)cc1C#N` [Example 165, (2R)-3-[7-(5-{3-cyano-4-[(1-methylethyl)oxy]phenyl}-1,2,4-oxadiazol-3-yl)-1,2,4,5-tetrahydro-3H-3-benzazepin-3-yl]-2-hydroxy-N-(1R)-2-hydroxy-1-methylethyl]propanamide hydrochloride] showed an EC50 of no more than 10 nM.
With `CC(C)Nc1ncc(-c2nc(-c3ccc4c(c3)CCN(C(CO)CO)CC4)no2)cc1C#N` [Example 108, 5-(3-{3-[2-hydroxy-1-(hydroxymethyl)ethyl]-2,3,4,5-tetrahydro-1H-3-benzazepin-7-yl}-1,2,4-oxadiazol-5-yl)-2-[(1-methylethyl)amino]-3-pyridinecarbonitrile hydrochloride] the figure was no more than 100 nM; with `Cc1c(-c2noc(-c3ccc(OC(C)C)c(C#N)c3)n2)ccc2c1CCN(C(=O)CN[C@@H](C)CO)C2` [Example 130, 5-[3-(2-{N-[(1S)-2-hydroxy-1-methylethyl]glycyl}-5-methyl-1,2,3,4-tetrahydro-6-isoquinolinyl)-1,2,4-oxadiazol-5-yl]-2-[(1-methylethyl)oxy]benzonitrile], no more than 10 nM; with `Cc1c(-c2noc(-c3ccc(OC(C)C)c(Cl)c3)n2)ccc2c1CCN(CC(=O)NCCO)C2` [Example 136, 2-[6-(5-{3-chloro-4-[(1-methylethyl)oxy]phenyl}-1,2,4-oxadiazol-3-yl)-5-methyl-3,4-dihydro-2(1H)-isoquinolinyl]-N-(2-hydroxyethyl)acetamide hydrochloride], no more than 10 nM.
With `Cc1c(-c2nnc(-c3ccc(OC(C)C)c(Cl)c3)s2)ccc2c1CCN(C(CO)CO)C2` [Example 203, 2-[6-(5-{3-chloro-4-[(1-methylethyl)oxy]phenyl}-1,3,4-thiadiazol-2-yl)-5-methyl-3,4-dihydro-2(1H)-isoquinolinyl]-1,3-propanediol hydrochloride] the figure was no more than 100 nM; with `CC(C)Oc1ccc(-c2nc(-c3cccc4c3CCN(C[C@@H](O)CO)C4)no2)cc1C#N` [Example 178, 5-(3-{2-[(2R)-2,3-dihydroxypropyl]-1,2,3,4-tetrahydro-5-isoquinolinyl}-1,2,4-oxadiazol-5-yl)-2-[(1-methylethyl)oxy]benzonitrile hydrochloride], no more than 10 nM; with `CC(C)Oc1ccc(-c2nc(-c3ccc4c(c3)CCN(CCC(=O)N(C)C)CC4)no2)cc1C#N` [Example 23, 3-[7-(5-{3-Cyano-4-[(1-methylethyl)oxy]phenyl}-1,2,4-oxadiazol-3-yl)-1,2,4,5-tetrahydro-3H-3-benzazepin-3-yl]-N,N-dimethylpropanamide], no more than 100 nM.
The result for `CC(C)Oc1ccc(-c2nnc(-c3ccc4c(c3)CCN(C(=O)CNCCO)CC4)s2)cc1C#N` [Example 200, 5-(5-{3-[N-(2-hydroxyethyl)glycyl]-2,3,4,5-tetrahydro-1H-3-benzazepin-7-yl}-1,3,4-thiadiazol-2-yl)-2-[(1-methylethyl)oxy]benzonitrile] reads no more than 10 nM; that for `CC(C)Oc1ccc(-c2nc(-c3cccc4c3CCN(C(CO)CO)C4)no2)cc1C#N` [Example 180, 5-(3-{2-[2-hydroxy-1-(hydroxymethyl)ethyl]-1,2,3,4-tetrahydro-5-isoquinolinyl}-1,2,4-oxadiazol-5-yl)-2-[(1-methylethyl)oxy]benzonitrile hydrochloride], no more than 10 nM.
